According to patent US4692443A, “3-bicyclicpyridinium-methyl cephalosporins” (Eli Lilly and Company, priority 1984, dated 1987):
In brackets after ≈: the same amount, converted by molar mass.

Legend:
Assay type in all cases: cell-based
Staph. aureus X1.1 = assay: standard in vitro agar dilution assay (MIC); conditions: Staphylococcus aureus; Staph. aureus strain X1.1; read-out: Agar Dilution MIC
Staph. aureus V41 = assay: standard in vitro agar dilution assay (MIC); conditions: Staphylococcus aureus; Staph. aureus strain V41; read-out: Agar Dilution MIC
Staph. aureus X400 = assay: standard in vitro agar dilution assay (MIC); conditions: Staphylococcus aureus; Staph. aureus strain X400
Staph. aureus S13E = assay: microbe, parasite or virus in culture; conditions: Staphylococcus aureus, read-out: Agar Dilution MIC
Staph. epi EPI1 = assay: standard in vitro agar dilution assay (MIC); conditions: Staph. epi strain EPI1
Staph. epi 222 = assay: standard in vitro agar dilution assay (MIC); conditions: Staph. epi strain 222
Strep. A C203 = assay: standard in vitro agar dilution assay (MIC); conditions: Strep. A strain C203
Strep. PN PARK = assay: standard in vitro agar dilution assay (MIC); conditions: Strep. PN strain PARK
Strep. D X66 = assay: standard in vitro agar dilution assay (MIC); conditions: Strep. D strain X66
Strep. D 9960 = assay: standard in vitro agar dilution assay (MIC); conditions: Strep. D strain 9960
E. coli N10 = assay: standard in vitro agar dilution assay (MIC); conditions: Escherichia coli; E. coli strain N10; read-out: Agar Dilution MIC
E. coli EC14 = assay: standard in vitro agar dilution assay (MIC); conditions: Escherichia coli; E. coli strain EC14; read-out: Agar Dilution MIC
E. coli TEM = assay: standard in vitro agar dilution assay (MIC); conditions: Escherichia coli; E. coli strain TEM; read-out: Agar Dilution MIC
Klebsiella X26 = assay: standard in vitro agar dilution assay (MIC); conditions: Klebsiella strain X26; read-out: Agar Dilution MIC
Klebsiella KAE = assay: standard in vitro agar dilution assay (MIC); conditions: Klebsiella strain KAE; read-out: Agar Dilution MIC
Klebsiella X68 = assay: standard in vitro agar dilution assay (MIC); conditions: Klebsiella strain X68; read-out: Agar Dilution MIC
[1] = test system: Enterobacter aerogenes C32; assay: standard in vitro agar dilution assay (MIC); conditions: Klebsiella aerogenes; Enterobacter aerogenes strain C32; read-out: Agar Dilution MIC
Salmonella X514 = assay: standard in vitro agar dilution assay (MIC); conditions: Salmonella strain X514; read-out: Agar Dilution MIC
Pseudomonas X528 = assay: standard in vitro agar dilution assay (MIC); conditions: Pseudomonas strain X528
Excerpt: The antibacterial activity of several representative compounds of the invention has been evaluated in standard in vitro agar dilution assays. The following Table presents typical minimum inhibitory concentrations (MIC's) in μg /ml for exemplary compounds when evaluated against typical Gram + and Gram - microorganism.

Pseudomonas X239 = assay: standard in vitro agar dilution assay (MIC); conditions: Pseudomonas strain X239
H. influ. 76 = assay: standard in vitro agar dilution assay (MIC); conditions: H. influ. strain 76; read-out: Agar Dilution MIC
H. influ. C.L. = assay: standard in vitro agar dilution assay (MIC); conditions: H. influ. strain C.L.; read-out: Agar Dilution MIC

| Compound | MIC (Staph. aureus X1.1) [µg/mL] | MIC (Staph. aureus V41) [µg/mL] | MIC (Staph. aureus X400) [µg/mL] | MIC (Staph. aureus S13E) [µg/mL] | MIC (Staph. epi EPI1) [µg/mL] | MIC (Staph. epi 222) [µg/mL] | MIC (Strep. A C203) [µg/mL] | MIC (Strep. PN PARK) [µg/mL] | MIC (Strep. D X66) [µg/mL] | MIC (Strep. D 9960) [µg/mL] | MIC (E. coli N10) [µg/mL] | MIC (E. coli EC14) [µg/mL] | MIC (E. coli TEM) [µg/mL] | MIC (Klebsiella X26) [µg/mL] | MIC (Klebsiella KAE) [µg/mL] | MIC (Klebsiella X68) [µg/mL] | MIC [1] [µg/mL] | MIC (Pseudomonas X528) [µg/mL] | MIC (Pseudomonas X239) [µg/mL] | MIC (H. influ. 76) [µg/mL] | further results |
| --- | --- | --- | --- | --- | --- | --- | --- | --- | --- | --- | --- | --- | --- | --- | --- | --- | --- | --- | --- | --- | --- |
| CO/N=C(\C(=O)NC1C(=O)N2C(C(=O)[O-])=C(C[n+]3ccc4c(c3)nc(C)n4C)CSC12)c1csc(N)n1 (stereo not drawn) [Example 6, syn-7-[2-(2-aminothiazol-4-yl)-2-methoxyiminoacetamido]-3-(1,2-dimethyl-1H-imidazolo[4,5-c]pyridinium-5-ylmethyl)-3-cephem-4-carboxylate] | 2 (≈ 3.69 µM) | 16 (≈ 29.5 µM) | 32 (≈ 59 µM) | 8 (≈ 14.7 µM) | 2 (≈ 3.69 µM) | 1 (≈ 1.84 µM) | < 0.008 | < 0.008 | > 128 | 4 (≈ 7.37 µM) | 0.03 (≈ 0.0553 µM) | < 0.008 | < 0.008 | < 0.008 | 2 (≈ 3.69 µM) | 0.03 (≈ 0.0553 µM) | 0.03 (≈ 0.0553 µM) | 4 (≈ 7.37 µM) | 4 (≈ 7.37 µM) |  | MIC (Salmonella X514): 0.03 µg/mL (≈ 0.0553 µM) |
| CO/N=C(\C(=O)NC1C(=O)N2C(C(=O)[O-])=C(C[n+]3ccc4nc(C)n(C)c4c3)CSC12)c1csc(N)n1 (stereo not drawn) [Example 7, syn-7-[2-(2-aminothiazol-4-yl)-2-methoxyiminoacetamido]-3-(2,3-dimethyl-3H-imidazolo[4,5-c]pyridinium-5-ylmethyl)-3-cephem-4-carboxylate] | 2 (≈ 3.69 µM) |  | 128 (≈ 236 µM) |  | 4 (≈ 7.37 µM) | 2 (≈ 3.69 µM) | 0.015 (≈ 0.0276 µM) |  | > 128 | 4 (≈ 7.37 µM) | 0.03 (≈ 0.0553 µM) | 0.015 (≈ 0.0276 µM) | 0.015 (≈ 0.0276 µM) | 0.015 (≈ 0.0276 µM) | 2 (≈ 3.69 µM) | 0.03 (≈ 0.0553 µM) |  |  |  | 0.03 (≈ 0.0553 µM) |  |
| CO/N=C(\C(=O)NC1C(=O)N2C(C(=O)[O-])=C(C[n+]3ccc4scnc4c3)CSC12)c1csc(N)n1 (stereo not drawn) [Example 12, syn-7-[2-(2-aminothiazol-4-yl)-2-methoxyiminoacetamido]-3-(thiazolo[4,5-c]pyridinium-5-ylmethyl)-3-cephem-4-carboxylate] | 1 (≈ 1.88 µM) | 2 (≈ 3.76 µM) | 2 (≈ 3.76 µM) | 8 (≈ 15 µM) | 2 (≈ 3.76 µM) |  | 0.015 (≈ 0.0282 µM) | 0.015 (≈ 0.0282 µM) | 128 (≈ 241 µM) | 4 (≈ 7.52 µM) | 0.03 (≈ 0.0564 µM) | 0.015 (≈ 0.0282 µM) |  | 0.015 (≈ 0.0282 µM) | 4 (≈ 7.52 µM) | 0.03 (≈ 0.0564 µM) | 0.03 (≈ 0.0564 µM) | 1 (≈ 1.88 µM) | 2 (≈ 3.76 µM) |  | MIC (Salmonella X514): 0.03 µg/mL (≈ 0.0564 µM) |
| CO/N=C(\C(=O)NC1C(=O)N2C(C(=O)[O-])=C(C[n+]3ccc4sc(C)nc4c3)CSC12)c1csc(N)n1 (centres unmarked) [Example 13] | 1 (≈ 1.83 µM) | 8 (≈ 14.7 µM) | 32 (≈ 58.6 µM) | 8 (≈ 14.7 µM) | 2 (≈ 3.67 µM) | 1 (≈ 1.83 µM) | 0.015 (≈ 0.0275 µM) | < 0.008 | > 128 | 8 (≈ 14.7 µM) | 0.03 (≈ 0.055 µM) | 0.015 (≈ 0.0275 µM) | 0.015 (≈ 0.0275 µM) | 0.015 (≈ 0.0275 µM) | 2 (≈ 3.67 µM) | 0.03 (≈ 0.055 µM) | 0.03 (≈ 0.055 µM) | 2 (≈ 3.67 µM) | 8 (≈ 14.7 µM) | 0.03 (≈ 0.055 µM) | MIC (H. influ. C.L.): 0.03 µg/mL (≈ 0.055 µM) |
| CCc1nc2c[n+](CC3=C(C(=O)[O-])N4C(=O)C(NC(=O)/C(=N\OC)c5csc(N)n5)C4SC3)ccc2s1 (stereo not drawn) [Example 14, syn-7-[2-(2-aminothiazol-4-yl)-2-methoxyiminoacetamido]-3-(2-ethylthiazolo[4,5-c]pyridinium-5-ylmethyl)-3-cephem-4-carboxylate] | 1 (≈ 1.79 µM) | 4 (≈ 7.15 µM) | 32 (≈ 57.2 µM) | 4 (≈ 7.15 µM) | 2 (≈ 3.57 µM) | 1 (≈ 1.79 µM) | < 0.008 | < 0.008 | > 128 | 4 (≈ 7.15 µM) | 0.03 (≈ 0.0536 µM) | 0.015 (≈ 0.0268 µM) | 0.015 (≈ 0.0268 µM) | < 0.008 | 2 (≈ 3.57 µM) | 0.03 (≈ 0.0536 µM) |  | 4 (≈ 7.15 µM) | 4 (≈ 7.15 µM) | 0.015 (≈ 0.0268 µM) |  |
